Data reported in article PMC12631985 (Environmental Science & Technology, 2025).

Assays:
AR mRNA = assay: Quantitative RT-PCR for DHT-induced AR mRNA expression in 22Rv1/MMTV-GRKO cells; format: cell-based, human; details: with DHT; highest noncytotoxic concentration (≥80% viability); n = 3
zebrafish = details: previous research; ref number not printed at the place; cited from earlier work
AR protein expression = assay: Western blot for DHT-induced AR protein expression; details: highest noncytotoxic concentration (≥80% viability), n = 3

Structure (SMILES)	reduction in AR mRNA levels compared to the DHT-only treatment group (AR mRNA) [%]	toxicity in zebrafish (zebrafish)	suppression level of DHT-induced AR protein expression compared with the DHT-only treatment group (AR protein expression) [%]
Fc1ccc([C@]2(Cn3cncn3)O[C@H]2c2ccccc2Cl)cc1 (racemic) [epoxiconazole]	59.0	–	–
N#CC(CCc1ccc(Cl)cc1)(Cn1cncn1)c1ccccc1 (centres unmarked) [fenbuconazole]	45.0	significantly impaired mitochondrial function and locomotor activity	24.6
C[Si](Cn1cncn1)(c1ccc(F)cc1)c1ccc(F)cc1 [flusilazole]	60.4	–	–
CC1(C)CCC(Cc2ccc(Cl)cc2)C1(O)Cn1cncn1 (centres unmarked) [metconazole]	27.8	–	–
CC(C)(C)C(O)(CCc1ccc(Cl)cc1)Cn1cncn1 (centres unmarked) [tebuconazole]	37.5	–	–
CCCOC/C(=N\c1ccc(Cl)cc1C(F)(F)F)n1ccnc1 [triflumizole]	26.5	–	–
